The text below walks through data of patent publication US12103924B2, “Mitogen-activated protein kinase kinase (MEK) degradation compounds and methods of use” (Icahn School of Medicine at Mount Sinai, priority 2020, dated 2024).

One may read the GI50 as the concentration giving 50% growth inhibition. A lower GI50 goes with greater sensitivity of the cells.

The subject of this experiment is HT-29 cells. Put plainly: MTT cell viability assay, HT-29. In kind it is cell-based. The conditions noted are these: Homo sapiens, 72 h, MTT assay, 3 d treatment, serial dilutions. (Tetrazolium dyes change colour on reduction, which living cells bring about.)
Protocol: MTT assay was conducted for HT-29 cells after 3 d treatment with indicated compounds with serial dilutions.
MTT assay was conducted for HT-29 (A) and SK-MEL-28 (B) cells after 3 d treatment with DMSO or indicated compounds with serial dilutions. Clonogenic assay was performed in HT-29 (C) and SK-MEL-28 (D) cells for 14 d treatment with DMSO or indicated compounds with 10, 30 and 100 nM, in duplicate, respectively. Cells were then stained by crystal violet.
Cells (2000 cells per well) were seeded into 96-well microplates. After 20 h, cells were treated with 0.1% DMSO or indicated serial dilutions of compounds in duplicate or triplicate for 3 days. Cell viability was tested using MTT (M6494, Thermo Fisher Scientific) or WST-8 reagent (CK04, Dojindo). Briefly, 12 mM MTT was prepared in PBS or WST-8 reagent was warmed up to room temperature. 20 μL MTT or CCK-8 was then added to each well and the plates were kept in incubator at 37° C. for 3 h in the dark. For the WST-8 assay, signal was obtained after the incubation. For the MTT assay, cell medium was replaced with 200 μL of DMSO after the incubation, and then cell plates were kept at 37° C. for another 30 min. Absorbance signals for MTT and WST-8 were read at 540 nm and 450 nm respectively, with 690 nm as reference performed with Infinite F PLEX plate reader (TECAN, Morrisville, NC, USA). GI50 values were analyzed using GraphPad Prism 8 from the data of at least three independent experiments.
HT-29 or SK-MEL-28 cells (300 cells per well) were seeded in 12-well plates. After 20 h, cells were treated with DMSO or indicated concentrations of compounds in duplicate for two weeks. Medium containing indicated compounds was changed every 3 days. Cells were then fixed and stained with the solution containing 6% (v/v) glutaraldehyde (G5882, Sigma-Aldrich) and 0.5% (w/v) crystal violet for 1 h. To remove the background color, the plates with stained cells were immersed in running water until clear colonies were observed. The plates were dried at RT. The staining images were obtained with Epson Perfection V600 Photo.
The compound `Cc1ncsc1-c1ccc(CNC(=O)[C@@H]2C[C@@H](O)CN2C(=O)[C@@H](NC(=O)COCCNCCCONC(=O)c2ccc(F)c(F)c2Nc2ccc(I)cc2F)C(C)(C)C)cc1` [CPD-002, (2S,4R)-1-((S)-14-(tert-Butyl)-1-(3,4-difluoro-2-((2-fluoro-4-iodophenyl)amino)phenyl)-1,12-dioxo-3,10-dioxa-2,7,13-triazapentadecan-15-oyl)-4-hydroxy-N-(4-(4-methylthiazol-5-yl)benzyl)pyrrolidine-2-carboxamide] returned a GI50 of 4 ± 0.2 µM.
With `Cc1ncsc1-c1ccc(CNC(=O)[C@@H]2C[C@@H](O)CN2C(=O)[C@@H](NC(=O)CCOCCNCCCONC(=O)c2ccc(F)c(F)c2Nc2ccc(I)cc2F)C(C)(C)C)cc1` [CPD-003, (2S,4R)-1-((S)-15-(tert-Butyl)-1-(3,4-difluoro-2-((2-fluoro-4-iodophenyl)amino)phenyl)-1,13-dioxo-3,10-dioxa-2,7,14-triazahexadecan-16-oyl)-4-hydroxy-N-(4-(4-methylthiazol-5-yl)benzyl)pyrrolidine-2-carboxamide] the figure was 4.8 ± 0.7 µM; with `Cc1ncsc1-c1ccc(CNC(=O)[C@@H]2C[C@@H](O)CN2C(=O)[C@@H](NC(=O)CCOCCOCCNCCCONC(=O)c2ccc(F)c(F)c2Nc2ccc(I)cc2F)C(C)(C)C)cc1` [CPD-004, (2S,4R)-1-((S)-18-(tert-Butyl)-1-(3,4-difluoro-2-((2-fluoro-4-iodophenyl)amino)phenyl)-1,16-dioxo-3,10,13-trioxa-2,7,17-triazanonadecan-19-oyl)-4-hydroxy-N-(4-(4-methylthiazol-5-yl)benzyl)pyrrolidine-2-carboxamide], 1.6 ± 0.3 µM; with `Cc1ncsc1-c1ccc(CNC(=O)[C@@H]2C[C@@H](O)CN2C(=O)[C@@H](NC(=O)CNCCCONC(=O)c2ccc(F)c(F)c2Nc2ccc(I)cc2F)C(C)(C)C)cc1` [CPD-005, (2S,4R)-1-((S)-11-(tert-Butyl)-1-(3,4-difluoro-2-((2-fluoro-4-iodophenyl)amino)phenyl)-1,9-dioxo-3-oxa-2,7,10-triazadodecan-12-oyl)-4-hydroxy-N-(4-(4-methylthiazol-5-yl)benzyl)pyrrolidine-2-carboxamide], 1.8 ± 0.4 µM.
`Cc1ncsc1-c1ccc(CNC(=O)[C@@H]2C[C@@H](O)CN2C(=O)[C@@H](NC(=O)CCNCCCONC(=O)c2ccc(F)c(F)c2Nc2ccc(I)cc2F)C(C)(C)C)cc1` [CPD-006, (2S,4R)-1-((S)-12-(tert-Butyl)-1-(3,4-difluoro-2-((2-fluoro-4-iodophenyl)amino)phenyl)-1,10-dioxo-3-oxa-2,7,11-triazatridecan-13-oyl)-4-hydroxy-N-(4-(4-methylthiazol-5-yl)benzyl)pyrrolidine-2-carboxamide] returned a GI50 of 5 ± 1.1 µM.
The figure for `Cc1ncsc1-c1ccc(CNC(=O)[C@@H]2C[C@@H](O)CN2C(=O)[C@@H](NC(=O)CCCCNCCCONC(=O)c2ccc(F)c(F)c2Nc2ccc(I)cc2F)C(C)(C)C)cc1` [CPD-007, (2S,4R)-1-((S)-14-(tert-Butyl)-1-(3,4-difluoro-2-((2-fluoro-4-iodophenyl)amino)phenyl)-1,12-dioxo-3-oxa-2,7,13-triazapentadecan-15-oyl)-4-hydroxy-N-(4-(4-methylthiazol-5-yl)benzyl)pyrrolidine-2-carboxamide] is 3 ± 0.5 µM; for `Cc1ncsc1-c1ccc(CNC(=O)[C@@H]2C[C@@H](O)CN2C(=O)[C@@H](NC(=O)CCCNCCCONC(=O)c2ccc(F)c(F)c2Nc2ccc(I)cc2F)C(C)(C)C)cc1` [CPD-008, (2S,4R)-1-((S)-13-(tert-Butyl)-1-(3,4-difluoro-2-((2-fluoro-4-iodophenyl)amino)phenyl)-1,11-dioxo-3-oxa-2,7,12-triazatetradecan-14-oyl)-4-hydroxy-N-(4-(4-methylthiazol-5-yl)benzyl)pyrrolidine-2-carboxamide] it is 11 ± 0.9 µM; for `Cc1ncsc1-c1ccc(CNC(=O)[C@@H]2C[C@@H](O)CN2C(=O)[C@@H](NC(=O)CCCCCNCCCONC(=O)c2ccc(F)c(F)c2Nc2ccc(I)cc2F)C(C)(C)C)cc1` [CPD-009, (2S,4R)-1-((S)-15-(tert-butyl)-1-(3,4-difluoro-2-((2-fluoro-4-iodophenyl)amino)phenyl)-1,13-dioxo-3-oxa-2,7,14-triazahexadecan-16-oyl)-4-hydroxy-N-(4-(4-methylthiazol-5-yl)benzyl)pyrrolidine-2-carboxamide] it is 2.1 ± 0.1 µM.
The figure for `Cc1ncsc1-c1ccc(CNC(=O)[C@@H]2C[C@@H](O)CN2C(=O)[C@@H](NC(=O)CCCCCCCCNCCCONC(=O)c2ccc(F)c(F)c2Nc2ccc(I)cc2F)C(C)(C)C)cc1` [CPD-010, (2S,4R)-1-((S)-18-(tert-butyl)-1-(3,4-difluoro-2-((2-fluoro-4-iodophenyl)amino)phenyl)-1,16-dioxo-3-oxa-2,7,17-triazanonadecan-19-oyl)-4-hydroxy-N-(4-(4-methylthiazol-5-yl)benzyl)pyrrolidine-2-carboxamide] is 0.6 ± 0.1 µM; for `Cc1ncsc1-c1ccc(CNC(=O)[C@@H]2C[C@@H](O)CN2C(=O)[C@@H](NC(=O)CCCCCCCNCCCONC(=O)c2ccc(F)c(F)c2Nc2ccc(I)cc2F)C(C)(C)C)cc1` [CPD-011, (2S,4R)-1-((S)-17-(tert-butyl)-1-(3,4-difluoro-2-((2-fluoro-4-iodophenyl)amino)phenyl)-1,15-dioxo-3-oxa-2,7,16-triazaoctadecan-18-oyl)-4-hydroxy-N-(4-(4-methylthiazol-5-yl)benzyl)pyrrolidine-2-carboxamide] it is 0.5 ± 0.2 µM; for `Cc1ncsc1-c1ccc(CNC(=O)[C@@H]2C[C@@H](O)CN2C(=O)[C@@H](NC(=O)COCCOCCNCCCONC(=O)c2ccc(F)c(F)c2Nc2ccc(I)cc2F)C(C)(C)C)cc1` [CPD-012, (2S,4R)-1-((S)-17-(tert-butyl)-1-(3,4-difluoro-2-((2-fluoro-4-iodophenyl)amino)phenyl)-1,15-dioxo-3,10,13-trioxa-2,7,16-triazaoctadecan-18-oyl)-4-hydroxy-N-(4-(4-methylthiazol-5-yl)benzyl)pyrrolidine-2-carboxamide] it is 1.6 ± 0.3 µM.
The figure for `Cc1ncsc1-c1ccc(CNC(=O)[C@@H]2C[C@@H](O)CN2C(=O)[C@@H](NC(=O)CCCCCCCCCNCCCONC(=O)c2ccc(F)c(F)c2Nc2ccc(I)cc2F)C(C)(C)C)cc1` [CPD-013, (2S,4R)-1-((S)-19-(tert-butyl)-1-(3,4-difluoro-2-((2-fluoro-4-iodophenyl)amino)phenyl)-1,17-dioxo-3-oxa-2,7,18-triazaicosan-20-oyl)-4-hydroxy-N-(4-(4-methylthiazol-5-yl)benzyl)pyrrolidine-2-carboxamide] is 0.5 ± 0.03 µM; for `Cc1ncsc1-c1ccc(CNC(=O)[C@@H]2C[C@@H](O)CN2C(=O)[C@@H](NC(=O)CCOCCOCCOCCNCCCONC(=O)c2ccc(F)c(F)c2Nc2ccc(I)cc2F)C(C)(C)C)cc1` [CPD-016, (2S,4R)-1-((S)-21-(tert-butyl)-1-(3,4-difluoro-2-((2-fluoro-4-iodophenyl)amino)phenyl)-1,19-dioxo-3,10,13,16-tetraoxa-2,7,20-triazadocosan-22-oyl)-4-hydroxy-N-(4-(4-methylthiazol-5-yl)benzyl)pyrrolidine-2-carboxamide] it is 3.3 ± 0.6 µM.
In turn, `Cc1ncsc1-c1ccc(CNC(=O)[C@@H]2C[C@@H](O)CN2C(=O)[C@@H](NC(=O)CCOCCOCCOCCOCCNCCCONC(=O)c2ccc(F)c(F)c2Nc2ccc(I)cc2F)C(C)(C)C)cc1` [CPD-017, (2S,4R)-1-((S)-24-(tert-butyl)-1-(3,4-difluoro-2-((2-fluoro-4-iodophenyl)amino)phenyl)-1,22-dioxo-3,10,13,16,19-pentaoxa-2,7,23-triazapentacosan-25-oyl)-4-hydroxy-N-(4-(4-methylthiazol-5-yl)benzyl)pyrrolidine-2-carboxamide] had a GI50 of 1.7 ± 0.1 µM.
On to `O=C1CCC(N2C(=O)c3cccc(NCCOCCOCCNCCCONC(=O)c4ccc(F)c(F)c4Nc4ccc(I)cc4F)c3C2=O)C(=O)N1` (centres unmarked) [CPD-020, N-(3-((2-(2-(2-((2-(2,6-dioxopiperidin-3-yl)-1,3-dioxoisoindolin-4-yl)amino)ethoxy)ethoxy)ethyl)amino)propoxy)-3,4-difluoro-2-((2-fluoro-4-iodophenyl)amino)benzamide], for which the GI50 stood at 1.3 ± 0.5 µM.
`O=C1CCC(N2C(=O)c3cccc(NCCOCCOCCOCCNCCCONC(=O)c4ccc(F)c(F)c4Nc4ccc(I)cc4F)c3C2=O)C(=O)N1` (centres unmarked) [CPD-021, N-((1-((2-(2,6-dioxopiperidin-3-yl)-1,3-dioxoisoindolin-4-yl)amino)-3,6,9-trioxa-12-azapentadecan-15-yl)oxy)-3,4-difluoro-2-((2-fluoro-4-iodophenyl)amino)benzamide] registered a GI50 of 0.8 ± 0.2 µM.
In the case of `O=C1CCC(N2C(=O)c3cccc(NCCOCCOCCOCCOCCNCCCONC(=O)c4ccc(F)c(F)c4Nc4ccc(I)cc4F)c3C2=O)C(=O)N1` (centres unmarked) [CPD-022, N-((1-((2-(2,6-dioxopiperidin-3-yl)-1,3-dioxoisoindolin-4-yl)amino)-3,6,9,12-tetraoxa-15-azaoctadecan-18-yl)oxy)-3,4-difluoro-2-((2-fluoro-4-iodophenyl)amino)benzamide], it took 0.6 ± 0.09 µM to inhibit growth by half (GI50).
The figure for `O=C1CCC(N2C(=O)c3cccc(NCCCNCCCONC(=O)c4ccc(F)c(F)c4Nc4ccc(I)cc4F)c3C2=O)C(=O)N1` (centres unmarked) [CPD-025, N-(3-((3-((2-(2,6-dioxopiperidin-3-yl)-1,3-dioxoisoindolin-4-yl)amino)propyl)amino)propoxy)-3,4-difluoro-2-((2-fluoro-4-iodophenyl)amino)benzamide] is 1.1 ± 0.07 µM; for `O=C1CCC(N2C(=O)c3cccc(NCCCCNCCCONC(=O)c4ccc(F)c(F)c4Nc4ccc(I)cc4F)c3C2=O)C(=O)N1` (centres unmarked) [CPD-026, N-(3-((4-((2-(2,6-dioxopiperidin-3-yl)-1,3-dioxoisoindolin-4-yl)amino)butyl)amino)propoxy)-3,4-difluoro-2-((2-fluoro-4-iodophenyl)amino)benzamide] it is 1.9 ± 0.4 µM.
On to `O=C1CCC(N2C(=O)c3cccc(NCCCCCNCCCONC(=O)c4ccc(F)c(F)c4Nc4ccc(I)cc4F)c3C2=O)C(=O)N1` (centres unmarked) [CPD-027, N-(3-((5-((2-(2,6-dioxopiperidin-3-yl)-1,3-dioxoisoindolin-4-yl)amino)pentyl)amino)propoxy)-3,4-difluoro-2-((2-fluoro-4-iodophenyl)amino)benzamide], for which it took 1.8 ± 0.5 µM to inhibit growth by half (GI50).
